As a reminder, the Kd is the equilibrium constant for the complex coming apart.

In paper PMC6347282, “Neutrophil elastase-cleaved corticosteroid-binding globulin is absent in human plasma” (The Journal of Endocrinology, 2018) one finds Kd data, which are given here for one molecule.

This experiment has as its target T1, human corticosteroid-binding globulin (CBG; SERPINA6) (Homo sapiens, UniProt P08185).
T1 construct: RCL intact; no tag
T1 sequence (P08185 23-405): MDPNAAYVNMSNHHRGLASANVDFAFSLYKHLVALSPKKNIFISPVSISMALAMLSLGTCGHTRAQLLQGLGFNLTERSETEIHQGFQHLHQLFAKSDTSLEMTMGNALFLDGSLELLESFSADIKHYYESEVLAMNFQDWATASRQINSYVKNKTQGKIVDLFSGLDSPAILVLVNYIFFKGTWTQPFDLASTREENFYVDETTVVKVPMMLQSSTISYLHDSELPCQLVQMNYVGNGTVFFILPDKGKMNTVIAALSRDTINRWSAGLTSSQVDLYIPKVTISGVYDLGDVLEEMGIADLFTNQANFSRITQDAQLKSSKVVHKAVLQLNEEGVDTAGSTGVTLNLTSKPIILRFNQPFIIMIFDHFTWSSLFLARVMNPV
Briefly: [3H]-corticosterone saturation binding, Scatchard analysis. To be noted: labelled compound; steroid-affinity purified plasma CBG, before 9G12 immunoprecipitation, ELISA-discordant sample; unreliable: unit doubtful, see left_out. (In an ELISA, binding on a coated surface is turned into a signal by an enzyme label.)

Regarding `C[C@]12C[C@H](O)[C@H]3[C@@H](CCC4=CC(=O)CC[C@@]43C)[C@@H]1CC[C@@H]2C(=O)CO` [corticosterone], the dissociation constant Kd stood at 1.72 nM.
